The text below walks through data of US9581577B2, “Miniaturized flow-through cell” (NATIONAL UNIVERSITY OF SINGAPORE, priority 2012, dated 2017).

The log P is the decadic logarithm of the partition coefficient of the neutral form, usually between octanol and water.

The conditions of data set [1]: cited from earlier work.
The conditions of data set [2]: endoxifen in 60% (v/v) ethanol-phosphate buffer with 0.5% (w/v) oleic acid; cited from earlier work.
Data set [3] in a line: Flux through rat skin translated to human skin. The format is in vitro ADME. The conditions noted are these: translated from the rat skin flux of 6.52 μg/cm^2/hr; limonene as PE in PG.
Data set [4] is described as follows: Endoxifen permeation studies with MFtC, with or without permeation enhancers. Type of data set: in vitro ADME, rat. The conditions noted are these: for Flux / Lag time: MFtC, rat abdominal skin, mean ± SD, N = 3. Here is the method: A fluorescence assay for endoxifen was established whereby endoxifen was converted to highly fluorescent phenanthrene derivatives following exposure to ultraviolet (UV) irradiation. A UV transilluminator (Bio Rad, USA) at λ=302 nm and an intensity of 866 μW/cm^2 was used for the conversion of endoxifen to its phenanthrene derivatives. The fluorescence emitted from the phenanthrene derivatives of endoxifen after various durations of UV exposure was determined with a microplate reader at a λex=260 nm and a λem=380 nm. Fluorescence measurements from non-UV exposed samples served as a control. The optimum duration of UV irradiation was determined with a 10 μg/ml solution of endoxifen. For all subsequent experiments, this duration of UV irradiation was fixed at the optimal time. The validated MFtC 5 mounted with rat abdominal skin was employed to determine the permeation profile of endoxifen. Donor solutions comprised of endoxifen (2 mg/ml) in PG with and without permeation enhancers (PEs) namely limonene, myristyl lactate and oleic acid at 0.5% (w/v) were prepared. All solutions were sonicated for 3 min to ensure dissolution of endoxifen and PEs. Each donor compartment 220 was filled with 200 μl of donor solution. Endoxifen was allowed to permeate through the rat abdominal skin over 48 hr. The experiments were performed in triplicates. Samples of permeated solutions were collected at specific time intervals and stored at −20° C. until analysis. The flux at steady state (Jss) and lag time were obtained from the cumulative plots. The effect of the PEs on the flux was evaluated by calculating the enhancement index (EI). Independent sample t-test (IBM SPSS PASW Statistics 18) was used to compare the permeation parameters obtained from experiments involving horizontal diffusion cell and MFtC 5. For endoxifen permeation experiments, one-way analysis of variance (ANOVA) with Scheffe post hoc test was used for the comparison of the permeation parameters of endoxifen with or without the different PEs. For all tests, p<0.05 was considered significant.

Data set [5] can be described thus: Permeation across rat abdominal skin in miniaturized flow-through cell (MFtC), validation. Type of data set: in vitro ADME. Here is the method:
To evaluate the performance characteristics of the MFtC 5, permeation of model compounds (rhodamine B and mangostin) using a horizontal diffusion cell (TK-6H1, Shanghai Kai Kai Technology, China) and a MFtC 5 was compared. Rat abdominal skins were obtained from the National University of Singapore Animal Centre and kept at −80° C. until use. Prior to the permeation studies, the skins were thawed and hair was completely removed with an electrical shaver and hair remover cream (Veet). Subcutaneous fat and connective tissues were also lightly trimmed off. All animal experiments were approved by Institutional Animal Care and Use Committee, National University of Singapore. Similar conditions were used in the MFtC 5 or MFtC 5 setup. A 1.0 cm×1.0 cm piece of rat abdominal skin was mounted between the donor compartment 220 and the receptor compartment 120 with the stratum corneum side facing the donor compartment 220 of the MFtC 5. In some embodiments, the area and shape of the skin/membrane of the present disclosure can be modified as needed or per application requirements. A sealant or sealing substance or material such as high vacuum grease (Dow Corning, USA) was applied to the donor compartment 220 on the unexposed stratum corneum side, in contact with the receptor compartment 120, to minimize leakage from the donor compartment 220. Other sealants, sealing substances, or high vacuum grease for minimizing leakage from the donor compartment 220 can be selected as needed or per application requirements. […] On the other hand, leakage of the donor solution could be observed when no grease was applied. In an embodiment of the present disclosure, the effective diffusion area was 0.283 cm^2. In some embodiments, the effective diffusion area can be about 0.283 cm^2 to about 0.5 cm^2. In an embodiment of the present disclosure, 70 μl of the donor solution was added into the donor compartment 220. In some embodiments, the volume of the donor solution added to the donor compartment 220 can be about 70 μl to about 300 μl. In an embodiment of the present disclosure, the receptor fluid or receptor solution comprised degassed PBS solution. In some embodiments, the receptor solution of the present disclosure can comprise other solutions such as water, buffers, extracellular fluid, lung lining fluid, gastric fluid, and/or cerebrospinal fluid. In an embodiment of the present disclosure, the flow rate of receptor solution through each diffusion cell 50 can be controlled by an infusion pump system 60, wherein the flow rate can be about 0.20 ml/hr. In some embodiments, the flow rate of receptor solution through each diffusion cell 50 can be reduced or increased to a flow rate of about 0.828 μl/hr to about 1270 ml/hr as needed or per application requirements. An embodiment of a MFtC 5 of the present disclosure was placed in a temperature controlling system such as a water bath 80 maintained at 37° C. using a hot plate to control the temperature. In some embodiments, the temperature can be adjusted as needed or per application requirements. In order to minimize evaporation, the donor compartment 220 and sampling container(s) 70 such as a sampling microfuge tube(s) 70 were occluded with parafilm. The sampling container(s) 70 such as a sampling tube(s) 70 was collected at specific time intervals and replaced by a sampling container(s) 70 such as an empty sampling tube(s) 70 for subsequent collections. The experiments were performed in triplicates or more. In some embodiments, the method of collecting the sample can be modified as needed or per application requirements. Skin samples from the same rat were used for comparisons between the horizontal diffusion cell and a MFtC 5 to minimise inter-animal variability. All experiments were performed at least three times. The samples were collected at the same time intervals and stored at 4° C. until analysis. During analysis, samples were first centrifuged at 13,000 rpm (Sorvall Biofuge Pico, UK) for 5 min. […]

A short description of data set [6]: Permeation across rat abdominal skin in horizontal diffusion cell (HDC). Type of data set: in vitro ADME. Here is the method: To evaluate the performance characteristics of the MFtC 5, permeation of model compounds (rhodamine B and mangostin) using a horizontal diffusion cell (TK-6H1, Shanghai Kai Kai Technology, China) and a MFtC 5 was compared. Rat abdominal skins were obtained from the National University of Singapore Animal Centre and kept at −80° C. until use. Prior to the permeation studies, the skins were thawed and hair was completely removed with an electrical shaver and hair remover cream (Veet). Subcutaneous fat and connective tissues were also lightly trimmed off. All animal experiments were approved by Institutional Animal Care and Use Committee, National University of Singapore. A 2.0 cm×2.0 cm piece of rat abdominal skin was mounted between the donor and receptor compartments of the horizontal diffusion cell, with the stratum corneum side facing the donor compartment. The effective diffusion area was 1.13 cm^2. Each donor cell contained 4.5 ml of each model compound in propylene glycol (PG) and the receptor cell contained the same volume of PBS. Mangostin was used at a concentration of 2.3 mg/ml and rhodamine B at concentrations of 1 mg/ml and 5 mg/ml. Both compartments were thermostated at 37° C. by means of a surrounding temperature controlled water jacket. In order to minimize evaporation, all cell openings were occluded with parafilm. The fluids in both compartments were maintained in a stirred state by a Teflon coated magnetic stirrer at a speed of 250±1.25 rpm. Samples (1 ml) were withdrawn from the receptor compartment for analysis at specific time intervals. Upon each sample withdrawal, the receptor compartment was immediately replaced by an equal volume of fresh solution. The experiments were performed in triplicates or more. Skin samples from the same rat were used for comparisons between the horizontal diffusion cell and a MFtC 5 to minimise inter-animal variability. All experiments were performed at least three times. The samples were collected at the same time intervals and stored at 4° C. until analysis. During analysis, samples were first centrifuged at 13,000 rpm (Sorvall Biofuge Pico, UK) for 5 min. The supernatant was obtained and analyzed according to their respective assay methods as reported below. Concentration of rhodamine B was determined by fluorescence spectroscopy with a microplate reader (Tecan, Switzerland) at an excitation wavelength (λex)=554 nm and an emission wavelength (λem)=586 nm at ambient temperature. All samples were protected from light to prevent possible light quenching of fluorescence during the assay. Mangostin concentration was determined with a reversed phase HPLC (Hitachi, Japan) using a C18 column (5 μm, 4.6 mm×250 mm; ODS Hypersil, Thermo Scientific) maintained at ambient temperature. The mobile phase comprised of methanol and ultrapure water (90:10, v/v) delivered at a flow rate of 1 ml/min. The UV detector (L-2400, Hitachi, Japan) was operated at a λ=320 nm. Under these conditions, the mangostin peak appeared at a retention time of 6.8 min.

Where [7] appears, read: ENX 2 mg/ml in PG alone (control).
The mark [8] stands for this setting: ENX 2 mg/ml in PG with limonene 0.5% (w/v).
Where [9] appears, read: ENX 2 mg/ml in PG with myristyl lactate 0.5% (w/v).
The mark [10] stands for this setting: ENX 2 mg/ml in PG with oleic acid 0.5% (w/v).
Setting [11] is: MFtC, donor 1 mg/ml in propylene glycol, rat abdominal skin, mean ± SD.
[12] abbreviates: MFtC, donor 5 mg/ml in propylene glycol, rat abdominal skin, mean ± SD.
The mark [13] stands for this setting: HDC, donor 1 mg/ml in propylene glycol, rat abdominal skin, mean ± SD.
Setting [14] is: HDC, donor 5 mg/ml in propylene glycol, rat abdominal skin, mean ± SD.

On to `CC/C(=C(\c1ccc(O)cc1)c1ccc(OCCNC)cc1)c1ccccc1` [endoxifen], for which the “log P” value in data set [1] is reported as 4.94. In data set [2], the “Highest flux reported (Jss)” value is on record as 0.22 μg/cm^2/hr. The “Flux through human skin” value in data set [3] was determined as 2.17 μg/cm^2/hr. Moreover, the Flux in data set [4] (setting [7]) stood at 0.65 ± 0.01 μg/cm^2/hr; in data set [4] (setting [8]), 6.52 μg/cm^2/hr; in data set [4] (ENX 2 mg/ml in PG with limonene 0.5% (w/v), listed as ENX), 6.52 ± 1.41 μg/cm^2/hr; in data set [4] (setting [9]) it was 5.33 ± 0.13 μg/cm^2/hr; in data set [4] (setting [10]), 4.09±1.07 μg/cm^2/hr; in data set [4] (ENX 2 mg/ml in PG with oleic acid 0.5% (w/v), listed as ENX), 4.09 ± 1.07 μg/cm^2/hr. The Lag time in data set [4] (setting [7]) came out at 1.03 ± 1.40 h; in data set [4] (setting [8]) it was 3.75 ± 2.37 h; in data set [4] (setting [9]), 7.62 ± 2.18 h; in data set [4] (setting [10]), 7.58 ± 4.04 h. Besides, the figures for the “Enhancement index (EI) = Jss (with enhancer)/Jss (without enhancer)” value in data set [4] (ENX in PG with limonene 0.5% (w/v) versus PG alone), in data set [4] (ENX in PG with myristyl lactate 0.5% (w/v) versus PG alone) and in data set [4] (ENX in PG with oleic acid 0.5% (w/v) versus PG alone) were 9.99, 8.17 and 6.26, respectively.

Consider `C=C(C)[C@H]1CC=C(C)CC1` [limonene, (R)-(+)-limonene], for which the “log P” value in data set [1] was 4.83.

In the case of `COc1c(O)cc2oc3cc(O)c(CC=C(C)C)c(O)c3c(=O)c2c1CC=C(C)C` [mangostin, α-mangostin], in data set [1], the “log P” value was 6.64. Moreover, in data set [5] (rat, 48 h, 2.3 mg/ml), the Flux was determined as 8.34 ± 3.40 μg/cm^2/hr and the Lag time turned out to be 14.5 ± 2.71 h. Also, in data set [6] (rat, 48 h, 2.3 mg/ml), the Flux came out at 7.06 ± 1.06 μg/cm^2/hr and the Lag time came to 7.19 ± 0.47 h.

With `CCCCCCCCCCCCCCOC(=O)C(C)O` (stereo not shown) [myristyl lactate], the “log P” value in data set [1] was 6.08.

As to `CCCCCCCC/C=C\CCCCCCCC(=O)O` [oleic acid], the “log P” value in data set [1] is recorded as 7.42.

With `CC(O)CO` (stereo not shown) [propylene glycol], the lipophilicity (log P) in data set [1] was −1.00.

As for `CCN(CC)c1ccc2c(-c3ccccc3C(=O)O)c3ccc(=[N+](CC)CC)cc-3oc2c1.[Cl-]` [rhodamine B], the “log P” value in data set [1] is 2.43. In addition, the Flux in data set [5] (setting [11]) was determined as 0.05 ± 0.02 μg/cm^2/hr; in data set [5] (setting [12]) it was 0.05 ± 0.02 μg/cm^2/hr; in data set [6] (setting [13]), 0.04 ± 0.03 μg/cm^2/hr; in data set [6] (setting [14]), 0.07 ± 0.01 μg/cm^2/hr. For the same compound, the Lag time in data set [5] (setting [11]) is 22.1 ± 4.07 h; in data set [5] (setting [12]) it was 8.35 ± 4.75 h; in data set [6] (setting [13]) it was 17.7 ± 3.47 h; in data set [6] (setting [14]), 11.4 ± 3.31 h.
